Measurements: ChEMBL document CHEMBL1138588, “Hedgehog-Gli signaling pathway inhibitors as anticancer agents” (J Med Chem, 2009)
One block for each molecule: values may come before it.

Tests used:
PANC-1 = assay: Selectivity for human PANC1 cells over mouse C3H10/T1/2 cells
[1] = Selectivity for Gli over Gli2
[2] = Antitumor activity against human medulloblastoma cells; format: functional; conditions: Medulloblastoma cell
Zinc finger protein GLI1 = biological target: T1, Zinc finger protein GLI1 (Homo sapiens, UniProt P08151); assay: Inhibition of Gli1-mediated transcription expressed in human PANC1 cells; format: cell-based; conditions: panc-1
T1 sequence (P08151 whole entry): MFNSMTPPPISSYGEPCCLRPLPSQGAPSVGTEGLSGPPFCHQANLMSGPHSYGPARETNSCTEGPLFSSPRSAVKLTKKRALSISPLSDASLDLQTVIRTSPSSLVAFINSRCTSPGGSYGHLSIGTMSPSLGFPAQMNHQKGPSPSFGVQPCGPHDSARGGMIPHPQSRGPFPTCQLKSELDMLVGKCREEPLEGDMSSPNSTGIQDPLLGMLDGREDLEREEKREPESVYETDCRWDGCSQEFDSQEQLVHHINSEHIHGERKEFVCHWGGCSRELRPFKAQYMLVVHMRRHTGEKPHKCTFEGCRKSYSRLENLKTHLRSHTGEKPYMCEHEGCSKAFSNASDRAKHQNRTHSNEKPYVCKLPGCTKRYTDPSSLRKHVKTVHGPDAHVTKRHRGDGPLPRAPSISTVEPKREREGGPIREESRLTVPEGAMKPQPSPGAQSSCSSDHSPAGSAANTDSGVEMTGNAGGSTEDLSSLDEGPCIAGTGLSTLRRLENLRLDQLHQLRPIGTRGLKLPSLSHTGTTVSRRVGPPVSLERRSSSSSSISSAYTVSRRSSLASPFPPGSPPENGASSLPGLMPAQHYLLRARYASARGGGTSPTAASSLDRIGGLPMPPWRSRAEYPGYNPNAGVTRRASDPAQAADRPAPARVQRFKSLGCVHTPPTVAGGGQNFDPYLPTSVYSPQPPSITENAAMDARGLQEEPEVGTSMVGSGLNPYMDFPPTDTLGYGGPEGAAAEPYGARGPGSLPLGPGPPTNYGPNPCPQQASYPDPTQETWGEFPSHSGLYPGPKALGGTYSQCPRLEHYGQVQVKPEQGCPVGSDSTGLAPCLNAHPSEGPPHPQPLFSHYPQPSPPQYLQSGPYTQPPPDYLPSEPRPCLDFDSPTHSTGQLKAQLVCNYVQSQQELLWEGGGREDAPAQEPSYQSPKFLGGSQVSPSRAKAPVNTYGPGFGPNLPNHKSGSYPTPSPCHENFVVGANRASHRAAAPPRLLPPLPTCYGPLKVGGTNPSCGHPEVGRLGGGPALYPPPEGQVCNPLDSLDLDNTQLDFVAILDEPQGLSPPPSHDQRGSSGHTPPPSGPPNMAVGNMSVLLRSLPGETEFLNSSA

[3] = Growth inhibition of human D283 MED cells; format: functional
Daoy = assay: Growth inhibition of human DaOY cells; format: functional
BXPC-3 [4] = assay: Growth inhibition of human BxPC3 cells; format: functional
[5] = Growth inhibition of human L3.6p1 cells; format: functional
BXPC-3 [6] = assay: In vivo antitumor activity against human BxPC3 cells assessed as inhibition of tumor growth; format: functional
[7] = Growth inhibition of human Panc 05.04 cells; format: functional
[8] = In vivo antitumor activity against human L3.6s1 cells assessed as inhibition of tumor growth; format: functional
Mus musculus = assay: Antitumor activity against transgenic mouse medulloblastoma model with loss of function mutations in Ptch1 and Hic1 gene administered as once daily oral dose; format: functional

SMILES: C[C@]12C(=O)C=CCC1=CC[C@@H]1[C@@H]2CC[C@]2(O)C(=O)O[C@@]3(C)[C@H]4C[C@]5(C)[C@@H](CO[C@@]16O[C@@]32[C@H]5C6=O)C(=O)O4 [PHYSALIN B]
Selectivity Index (PANC-1): 3
Ratio IC50 [1]: 2

IC50 [2]: 10000 nM
SMILES: COc1cc(OC)cc(C(=O)Nc2ccc(Cl)c(-c3nc4cc(N(C)C)ccc4[nH]3)c2)c1

SMILES: O=C1NCc2c1c1c3ccccc3[nH]c1c1[nH]c3ccccc3c21 [STAUROSPORINONE]
Selectivity Index (PANC-1): 3

SMILES: C=C(C)[C@@H]1CC[C@]2(C(=O)O)CC[C@]3(C)[C@H](CC[C@@H]4[C@@]5(C)CC[C@H](O)C(C)(C)[C@@H]5CC[C@]43C)[C@@H]12 [BETULINIC ACID]
IC50 (Zinc finger protein GLI1): 32000 nM

SMILES: C=C(C)[C@@H]1CC[C@]2(C(=O)O)CC[C@]3(C)[C@H](CC[C@@H]4[C@@]5(C)[C@H](C=O)[C@@H](O)C(C)(C)[C@@H]5CC[C@]43C)[C@@H]12 [COLUBRINIC ACID]
IC50 (Zinc finger protein GLI1): 38000 nM

GI50 (BXPC-3 [4]): 3 nM
SMILES: CCOc1ccc(Nc2nc(-c3c(C)nc4ccccn34)cs2)cc1
GI50 [3]: 3 nM
GI50 (Daoy): 3 nM
GI50 [5]: 3 nM
inhibition (INH) (BXPC-3 [6]): 30%
GI50 [7]: 3 nM
inhibition (INH) [8]: 30%

SMILES: C=C(C)[C@@H]1CC[C@]2(C(=O)O)CC[C@]3(C)[C@H](CC[C@@H]4[C@@]5(C)C[C@@H](O)[C@H](O)C(C)(C)[C@@H]5CC[C@]43C)[C@@H]12 [ALPHITOLIC ACID]
IC50 (Zinc finger protein GLI1): 42000 nM

SMILES: CC1=C2C[C@H]3[C@@H](CC[C@@H]4CNC(=O)CC[C@@]43C)[C@@H]2CC[C@@]2(C1)O[C@@H]1C[C@H](C)CN[C@H]1[C@H]2C
ED50 (Mus musculus): < 7.5 mg/kg

SMILES: C[C@@]12C[C@H]3OC(=O)[C@@H]1CO[C@]14O[C@]5([C@H]2C1=O)[C@@](O)(CC[C@H]1[C@H]4C[C@H]2O[C@]24CC=CC(=O)[C@]14C)C(=O)O[C@@]35C [PHYSALIN F]
Selectivity Index (PANC-1): 3
Ratio IC50 [1]: 2
